Measured values reported in US9567524B2, “Polymerizable liquid crystal compound, and compensation film, antireflective film, and display device including the same” (SAMSUNG ELECTRONICS CO., LTD., priority 2015, dated 2017).

Experiment: Thermogravimetric analysis (TGA), thermal stability
Assay type: physicochemical
Details: Trios V3.0, 10° C./min, N2 atmosphere; FIG. 7
Experimental: Thermogravimetric analysis (TGA) and differential scanning calorimetry (DSC) analysis of the polymerizable liquid crystal compound according to Synthesis Example 1 are performed by using Trios V3.0 (TA Instrument, 10° C./min, N2 atmosphere). FIG. 7 is a drawing showing the thermogravimetric analysis of the polymerizable liquid crystal compound 1a-5 according to Synthesis Example 1, and FIG. 8 is a drawing showing the differential scanning calorimetry (DSC) analysis of the polymerizable liquid crystal compound 1a-5 according to Synthesis Example 1.
Referring to FIG. 7, the polymerizable liquid crystal compound 1a-5 of Synthesis Example 1 is decomposed at a temperature of greater than or equal to 300° C.

Decomposition temperature (TGA): greater than or equal to 300 °C
SMILES: C=CC(=O)OCCCOc1ccc(C(=O)OCc2ccc(C(=O)Oc3ccc(OC(=O)c4ccc(COC(=O)c5ccc(OCCCOC(=O)C=C)cc5)cc4)cc3)cc2)cc1 [Compound 1a-5]
